Data published in patent publication US4900539A, “Radiohalogenated thienylethylamine derivatives for evaluating local cerebral blood flow” (The United States of America as represented by the United …, priority 1988, dated 1990).

How the values were obtained:
[1] = Tissue distribution of 5-halothiophene-2-isopropylamines in Fisher rats (brain uptake and brain:blood); assay type: in vivo; settings: for tissue uptake at 5 min / tissue uptake at 0.5 h / tissue uptake at 1 h: rat, brain, read-out: Mean Brain, % Dose/gm
Source text: TISSUE DISTRIBUTION OF 5-HALOTHIOPHENE-
Mean Brain, % Dose/gm (Mean Brain:Blood)

[2] = IMP versus HIPDM, cited from earlier work

Compound | brain uptake and retention (in words) [1] | Mean Brain:Blood ([1]; 5 min) | Mean Brain:Blood ([1]; 30 min) | Mean Brain:Blood ([1]; 60 min) | tissue uptake at 5 min ([1]; 5 min) | tissue uptake at 0.5 h ([1]; 30 min) | tissue uptake at 1 h ([1]; 60 min) | lung clearance relative to HIPDM [2] | amount of activity in the brain relative to HIPDM ([2]; five minutes after administration) | brain-to-blood ratios (in words) [1]
CC(N)Cc1ccc([82Br])s1 (centres unmarked) [Br--82] | good brain uptake and retention | 10.4 | 4.1 | 2.2 | 2.7 %ID/g | 2.3 %ID/g | 1.67 %ID/g |  |  | 
CC(C)NC(C)Cc1ccc(I)cc1 (centres unmarked) [IMP, N-isopropyl-p-iodoamphetamine] |  |  |  |  |  |  |  | clears the lungs faster | almost twice the amount of activity in the brain | 
CC(N)Cc1ccc([125I])s1 (centres unmarked) [I--125] | high brain uptake and good retention | 6.0 | 3.7 | 2.1 | 2.77 %ID/g | 2.51 %ID/g | 1.42 %ID/g |  |  | high brain-to-blood ratios
